Measured values reported in ChEMBL document CHEMBL3603759, “Ribosome-targeting antibiotics as inhibitors of oncogenic microRNAs biogenesis: Old scaffolds for new perspectives in RNA targeting” (Bioorg Med Chem, 2015).
Active and inactive are the calls of the source. The rule behind the calls is not given here.

Experiments:
[1] = Ratio of Kd for 5'-FAM-pre-miR-372 (unknown origin) in presence of 100-fold excess of Escherichia coli tRNA to Kd for 5'-FAM-pre-miR-372 (unknown origin)
[2] = Inhibition of pre-miR-372 (unknown origin) cleavage assessed as reduction of oncogenic microRNAs biogenesis by measuring fluorescence every minute for 5 hrs using 5'-FAM,3'-dabcyl-pre-miRNA beacons by FRET assay in presence of recombinant Dicer
[3] = Inhibition of pre-miR-21 (unknown origin) cleavage assessed as reduction of oncogenic microRNAs biogenesis by measuring fluorescence every minute for 5 hrs using 5'-FAM,3'-dabcyl-pre-miRNA beacons by FRET assay in presence of recombinant Dicer
[4] = Inhibition of pre-miR-372 (unknown origin) cleavage at U15-G16-G17-A18 at 10 to 100 uM after 15 mins by RNase footprinting assay in presence of RNase-V1
[5] = Inhibition of pre-miR-373 (unknown origin) cleavage assessed as reduction of oncogenic microRNAs biogenesis by measuring fluorescence every minute for 5 hrs using 5'-FAM,3'-dabcyl-pre-miRNA beacons by FRET assay in presence of recombinant Dicer
[6] = Inhibition of pre-miR-372 (unknown origin) cleavage assessed as reduction of oncogenic microRNAs biogenesis at 200 uM by measuring fluorescence every minute for 5 hrs using 5'-FAM,3'-dabcyl-pre-miRNA beacons by FRET assay in presence of recombinant Dicer
[7] = Binding affinity to 5'-FAM-pre-miR-372 (unknown origin) assessed as change in total free energy by thermodynamic assay
[8] = Inhibition of pre-miR-372 (unknown origin) cleavage at A42 at 1 to 100 uM after 2 hrs by denaturing gel electrophoresis in presence of recombinant Dicer
[9] = Inhibition of pre-miR-372 (unknown origin) cleavage at C27 at 10 to 100 uM after 15 mins by RNase footprinting assay in presence of RNase-V1
[10] = Binding affinity to 5'-FAM-pre-miR-372 (unknown origin) after 4 hrs by fluorescence assay in presence of 100-fold excess of Escherichia coli tRNA
[11] = Inhibition of pre-miR-372 (unknown origin) cleavage at 10 to 100 uM after 15 mins by RNase footprinting assay in presence of RNase-S1
[12] = Inhibition of pre-miR-17 (unknown origin) cleavage assessed as reduction of oncogenic microRNAs biogenesis by measuring fluorescence every minute for 5 hrs using 5'-FAM,3'-dabcyl-pre-miRNA beacons by FRET assay in presence of recombinant Dicer
[13] = Ratio of Kd for 5'-FAM-pre-miR-372 (unknown origin) in presence of 100-fold excess of 15-mer DNA to Kd for 5'-FAM-pre-miR-372 (unknown origin)
[14] = Inhibition of pre-miR-372 (unknown origin) cleavage at A24 at 1 to 100 uM after 2 hrs by denaturing gel electrophoresis in presence of recombinant Dicer
[15] = Inhibition of pre-miR-372 (unknown origin) cleavage at U28 at 1 to 100 uM after 2 hrs by denaturing gel electrophoresis in presence of recombinant Dicer
[16] = Inhibition of pre-miR-372 (unknown origin) cleavage at A10-A11 at 10 to 100 uM after 15 mins by RNase footprinting assay in presence of RNase-V1
[17] = Binding affinity to 5'-FAM-pre-miR-372 (unknown origin) after 4 hrs by fluorescence assay; details: read-out: Kd
[18] = Inhibition of pre-miR-373 (unknown origin) cleavage assessed as reduction of oncogenic microRNAs biogenesis at 200 uM by measuring fluorescence every minute for 5 hrs using 5'-FAM,3'-dabcyl-pre-miRNA beacons by FRET assay in presence of recombinant Dicer
[19] = Binding affinity to 5'-FAM-pre-miR-17 (unknown origin) after 4 hrs by fluorescence assay; details: read-out: Kd
[20] = Binding affinity to 5'-FAM-pre-miR-372 (unknown origin) after 4 hrs by fluorescence assay in presence of 100-fold excess of 15-mer DNA
[21] = Binding affinity to 5'-FAM-pre-miR-373 (unknown origin) after 4 hrs by fluorescence assay; details: read-out: Kd
[22] = Inhibition of pre-miR-17 (unknown origin) cleavage assessed as reduction of oncogenic microRNAs biogenesis at 200 uM by measuring fluorescence every minute for 5 hrs using 5'-FAM,3'-dabcyl-pre-miRNA beacons by FRET assay in presence of recombinant Dicer
[23] = Inhibition of pre-miR-21 (unknown origin) cleavage assessed as reduction of oncogenic microRNAs biogenesis at 200 uM by measuring fluorescence every minute for 5 hrs using 5'-FAM,3'-dabcyl-pre-miRNA beacons by FRET assay in presence of recombinant Dicer
[24] = Inhibition of pre-miR-372 (unknown origin) cleavage at 1 to 100 uM after 15 mins by RNase footprinting assay in presence of RNase-V1
[25] = Inhibition of pre-miR-372 (unknown origin) cleavage at U31, G32 and U33 at 1 to 100 uM after 15 mins by RNase footprinting assay in presence of RNase-S1

Row | Ratio [1] | IC50 [2] [µM] | IC50 [3] [µM] | IC50 [5] [µM] | inhibition [6] [%] | Activity [7] [%] | inhibition [8] | IC50 [12] [µM] | Ratio [13] | inhibition [14] | inhibition [15] | Kd [17] [µM] | inhibition [18] [%] | Kd [19] [µM] | Kd [20] [µM] | Kd [21] [µM] | inhibition [22] [%] | inhibition [23] [%] | Structure (SMILES) | Kd [10] [µM] | other results
1 | 1 | 88.2 | 76.7 | 143 | 60 | 70 | Active | 93.7 | 1 | Active | Active | 11.6 | 60 | 1.88 | 11.3 | 15.2 | 60 | 60 | NC[C@@H]1O[C@H](O[C@H]2[C@@H](O)[C@H](O[C@@H]3[C@@H](O)[C@H](N)C[C@H](N)[C@H]3O[C@H]3O[C@H](CN)[C@@H](O)[C@H](O)[C@H]3N)O[C@@H]2CO)[C@H](N)[C@@H](O)[C@@H]1O [FRAMYCETIN] | 11.7 | inhibition [4]: Active; inhibition [9]: Active; inhibition [11]: inactive; inhibition [16]: Active
2 | 3.2 | 397 | 369 | 327 | 30 | 91 | inactive | 129 | 2.4 | inactive | inactive | 0.612 | 30 | 0.651 | 1.45 | 0.597 | 30 | 30 | CN(C)c1ccc(O)c2c1C[C@H]1C[C@H]3[C@H](N(C)C)C(O)=C(C(N)=O)C(=O)[C@@]3(O)C(O)=C1C2=O [MINOCYCLINE] | 1.98 | inhibition [24]: inactive; inhibition [25]: Active
